Assay results reported in patent publication US9827189B2, “Stable parenteral DNJ compositions” (AMICUS THERAPEUTICS, INC., priority 2013, dated 2017).
Entries after “also recorded” stand apart in the source; their conditions may differ. Where a name gives a salt, the structure may show the parent alone.

Tests used:
[1] = Stability and integrity of 1-DNJ-HCl in buffer solutions at 60° C. by NP-HPLC (UV and CAD) and discoloration; type: physicochemical
Description: 1-DNJ-HCl was dissolved in sodium phosphate buffer. 1-DNJ-HCl concentration was 60 mg/mL; sodium phosphate buffer concentration was 100 mM at pH 4.89. The formulation was stored at 60° C. for 4 days. 1-DNJ-HCl solution in water was used as a control. Reaction rate for small molecules such as 1-DNJ-HCl generally follows Arrhenius equation where reaction rate nearly doubles for every 10° C. increase in the temperature. Thus, under this model, the reaction rate at 60° C. would be 2^5 or 32 times the reaction rate at 10° C. Therefore during 4 days at 60° C. 1-DNJ-HCl would degrade by approximately the same percentage as during 128 days (4*32) at 10° C. The stability of 1-DNJ-HCl was measured by normal phase high performance liquid chromatography (NP-HPLC). 1-DNJ-HCl was recorded by UV chromatograms and by Charged Aerosol Detector (CAD) chromatograms. Mobile phase consisted of ACN/30 mM Ammonium Acetate (90/10, v/v). The flow rate was 1.0 ml/min with 5 μl injection at 400° C. UV absorbance was measured at 220 nm CAD detector settings were 35.0 psi, Gain: 100 pA. 1-DNJ-HCl was dissolved in sodium acetate buffer. The 1-DNJ-HCl concentration was 60 mg/mL; sodium acetate buffer concentration was 50 mM at pH 5.5. The formulation was stored at 60° C. for 4 days. 1-DNJ-HCl solution in water was used as control. Reaction rate for small molecules such as 1-DNJ-HCl generally follows the Arrhenius equation, in which the reaction rate nearly doubles for every 10°K increase in the temperature. Thus the reaction rate, under this model, at 60° C. would be 2^5 or 32 times the reaction rate at 10° C. Therefore during 4 days at 60° C. 1-DNJ-HCl would degrade by approximately same percentage as during 128 days at 10° C. The stability of 1-DNJ-HCl was measured by NP-HPLC. Presence of 1-DNJ-HCl was recorded by UV absorbance detector and by Charged Aerosol Detector. Mobile phase consisted of ACN/30 mM Ammonium Acetate (90/10, v/v). The flow rate was 1.0 ml/min with 5 μl injection at 400 C. UV absorbance was measured at 220 nm. CAD detector settings were 35.0 psi, Gain: 100 pA. 1-DNJ-HCl was dissolved in sodium citrate buffer that further includes EDTA. 1-DNJ-HCl concentration was 60 mg/mL; sodium citrate buffer concentration was 50 mM at pH 4.6. The EDTA concentration was 0.05% w/v. Some samples were stored under the nitrogen atmosphere (essentially 100% nitrogen) while others were stored under air. The formulation was stored at 60° C. for 8 days. Stability of 1-DNJ-HCl was measured by NP-HPLC. Presence of 1-DNJ-HCl was recorded by UV absorbance detector and by Charged Aerosol Detector. Mobile phase consisted of ACN/30 mM Ammonium Acetate (90/10, v/v). The flow rate was 1.0 ml/min with 5 μl injection at 400 C. UV absorbance was measured at 220 nm. CAD detector settings were 35.0 psi, Gain: 100 pA. 1-DNJ-HCl was dissolved in sodium citrate buffer. 1-DNJ-HCl concentration was 60 mg/mL; sodium citrate buffer concentration was 50 mM at pH 4.7. The formulation was stored at 60° C. for 8 days. 1-DNJ-HCl solution in water was used as control. Stability of 1-DNJ-HCl was measured by NP-HPLC. Presence of 1-DNJ-HCl was recorded by UV absorbance detector and by Charged Aerosol Detector. Mobile phase consisted of ACN/30 mM Ammonium Acetate (90/10, v/v). The flow rate was 1.0 ml/min with 5 μl injection at 400 C. UV absorbance was measured at 220 nm. CAD detector settings were 35.0 psi, Gain: 100 pA. 1-DNJ-HCl was dissolved in sodium citrate buffer. 1-DNJ-HCl concentration was 60 mg/mL; sodium citrate buffer concentration was 50 mM at pH 5.0. The formulation was stored at 60° C. for 17 days. The samples were stored under the nitrogen atmosphere (essentially 100% nitrogen). 1-DNJ-HCl solution in water was used as control. Reaction rate for small molecules such as 1-DNJ-HCl generally follows Arrhenius equation where reaction rate nearly doubles for every 10°K increase in the temperature. Thus reaction rate at 60° C. would be 2^5 or 32 times the reaction rate at 10° C. Therefore during 17 days at 60° C. […]

[2] = test system: human whole blood; assay: Hemolytic potential in human whole blood; type: cell-based; details: 37 ° C. 30 minutes
Description: (§1) 1-DNJ-HCl was dissolved in sodium citrate buffer. 1-DNJ-HCl concentration was 30 mg/mL (resulting free 1-DNJ concentration was 25 mg/mL); sodium citrate buffer concentration was 50 mM at pH 5.0. 1-DNJ-HCl formulation was added to whole blood samples of male human, rat, and cynomolgus monkey. […]. Buffer served as a negative control, while Triton-X 100 (Lysing agent) served as a positive control. Additionally blood sample without any additions was used as a negative control. The samples were stored at 4° C. Blood samples were incubated at 37 ° C. for 30 minutes with the 1-DNJ-HCl formulation, after which the samples were centrifuged. The amount of hemoglobin in the supernatant from each centrifuged sample was measured using a commercially available hemoglobin assay kit (BioAssay Systems, QuantiChrom™ Hemoglobin Assay Kit) and the Tecan microplate reader.

[3] = test system: rat whole blood; assay: Hemolytic potential in rat whole blood; type: cell-based, Sprague Dawley rat; details: 37 ° C. 30 minutes
Description: as §1

[4] = 60 mg/mL in 50 mM sodium acetate buffer pH 5.5, 60° C., 4 days, hydrochloride
[5] = 60 mg/mL in 50 mM sodium citrate buffer pH 4.6, EDTA 0.05% w/v, nitrogen atmosphere, 60° C., 8 days
[6] = 60 mg/mL in 50 mM sodium citrate buffer pH 4.6, EDTA 0.05% w/v, stored under air, 60° C., 8 days
[7] = 60 mg/mL in 100 mM sodium phosphate buffer pH 4.89, 60° C., 4 days
[8] = 60 mg/mL in 100 mM sodium phosphate buffer pH 4.89, 60° C., 4 days, hydrochloride
[9] = control 1-DNJ-HCl aqueous solution, 60° C., 4 days
[10] = control 1-DNJ-HCl aqueous solution, 60° C., 8 days
[11] = control 1-DNJ-HCl aqueous solution, 60° C., 17 days
[12] = sodium citrate buffer, summary of the Examples
[13] = 500 μL blood mixed with 500 μL sample (30 mg/mL AT2220 or 0.1% Triton X-100)
[14] = 500 μL blood mixed with 500 μL sample, 30 mg/mL AT2220 dilution 1, 0.1% Triton X-100 dilution 100

OC[C@H]1NC[C@H](O)[C@@H](O)[C@@H]1O [1-DNJ-HCl, 1-deoxynojirimycin hydrochloride]
Presence of 1-DNJ-HCl (NP-HPLC) ([1]; 60 mg/mL in 50 mM sodium acetate buffer pH 5.5, 60° C., 4 days): still present
Discoloration [1, 4]: discoloration of the acetate buffer solution was observed; also recorded: resulted in discoloration
New compounds (UV and CAD chromatograms) [1, 4]: detected presence of new compounds; also recorded: presence of additional compounds
Presence of 1-DNJ-HCl (NP-HPLC) ([1]; 60 mg/mL in 50 mM sodium citrate buffer pH 4.6, EDTA 0.05% w/v, 60° C., 8 days): still present
Discoloration [1, 5]: remained clear with no visible discoloration
New compounds (UV and CAD chromatograms) [1, 5]: No new compounds were detected
Discoloration [1, 6]: slight discoloration
New compounds (UV and CAD chromatograms) [1, 6]: showed presence of new compounds
Presence of 1-DNJ-HCl (NP-HPLC) ([1]; 60 mg/mL in 50 mM sodium citrate buffer pH 4.7, 60° C., 8 days): still present
Presence of 1-DNJ-HCl (NP-HPLC) ([1]; 60 mg/mL in 50 mM sodium citrate buffer pH 5.0, nitrogen atmosphere, 60° C., 17 days): still present
Presence of 1-DNJ-HCl (NP-HPLC) [1, 7]: still present
Stability [1, 7]: not stable
Discoloration [1, 8]: discoloration of the phosphate buffer solution was observed; also recorded: resulted in discoloration
New compounds (UV and CAD chromatograms) [1, 8]: detected presence of new compounds; also recorded: presence of additional compounds
Appearance of solution [1, 9]: remainded clear
New compounds (UV and CAD chromatograms) [1, 9]: No new compounds were detected
Discoloration [1, 10]: No discoloration was observed
New compounds (UV and CAD chromatograms) [1, 10]: No new compounds were detected
Discoloration [1, 11]: No discoloration was observed
New compounds (UV and CAD chromatograms) [1, 11]: No new compounds were detected
Relative stability among buffers ([1]; sodium citrate buffer compared with sodium phosphate and sodium acetate buffers): most stable
Additional compounds (HPLC) [1, 12]: little to no presence of additional compounds
Discoloration [1, 12]: little to no discoloration
% RBC lysis [2, 13]: 0.0%
Avg OD (n = 4) [2, 14]: 0.0755
% RBC lysis [3, 13]: −0.3%
Avg OD (n = 4) [3, 14]: 0.3535
